According to the kinase profiling compilation of Christmann-Franck et al. (2016):

What was measured:
Test in all cases: KINOMEscan competition binding
Details in all cases: compound 1.0 µM
PAK7 (human) = PAK7 (human) (UniProt Q9P286)
MAP3K11 (human) = MAP3K11 (human) (UniProt Q16584)
CSNK2A2 (human) = CSNK2A2 (human) (UniProt P19784)
MAP3K12 (human) = MAP3K12 (human) (UniProt Q12852)
YSK4 (human) = YSK4 (human) (UniProt Q56UN5)
EPHA1 (human) = EPHA1 (human) (UniProt P21709)
AXL (human) = AXL (human) (UniProt P30530)
MARK2 (human) = MARK2 (human) (UniProt Q7KZI7)
GSK3B (human) = GSK3B (human) (UniProt P49841)
[1] = system: FLT3 (human), P36888 [ITD]
GRK7 (human) = GRK7 (human) (UniProt Q8WTQ7)
ULK2 (human) = ULK2 (human) (UniProt Q8IYT8)
CDK11B (human) = CDK11B (human) (UniProt P21127)
STK24 (human) = STK24 (human) (UniProt Q9Y6E0)
LIMK2 (human) = LIMK2 (human) (UniProt P53671)
Sequence of LIMK2 (human) (P53671 whole entry, looked up): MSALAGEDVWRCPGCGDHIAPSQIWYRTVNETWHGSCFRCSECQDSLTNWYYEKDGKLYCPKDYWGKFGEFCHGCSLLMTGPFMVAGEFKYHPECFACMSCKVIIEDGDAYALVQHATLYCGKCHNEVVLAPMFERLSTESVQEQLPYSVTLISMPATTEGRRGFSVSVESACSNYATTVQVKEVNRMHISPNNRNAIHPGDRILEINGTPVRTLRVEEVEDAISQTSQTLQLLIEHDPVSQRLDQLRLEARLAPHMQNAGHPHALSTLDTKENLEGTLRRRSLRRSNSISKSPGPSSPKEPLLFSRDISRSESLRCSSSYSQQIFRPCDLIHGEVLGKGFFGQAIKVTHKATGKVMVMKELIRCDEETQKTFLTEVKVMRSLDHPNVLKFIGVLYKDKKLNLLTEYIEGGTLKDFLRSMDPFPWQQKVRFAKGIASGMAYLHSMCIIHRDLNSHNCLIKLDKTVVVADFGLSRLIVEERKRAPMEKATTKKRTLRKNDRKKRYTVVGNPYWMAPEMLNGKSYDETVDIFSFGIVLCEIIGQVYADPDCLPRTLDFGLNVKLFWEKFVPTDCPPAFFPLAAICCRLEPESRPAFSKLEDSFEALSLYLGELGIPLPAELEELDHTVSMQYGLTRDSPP

HIPK1 (human) = HIPK1 (human) (UniProt Q86Z02)
NIM1 (human) = NIM1 (human) (UniProt Q8IY84)
CSNK1G3 (human) = CSNK1G3 (human) (UniProt Q9Y6M4)
AAK1 (human) = AAK1 (human) (UniProt Q2M2I8)
Sequence of AAK1 (human) (Q2M2I8 whole entry, looked up): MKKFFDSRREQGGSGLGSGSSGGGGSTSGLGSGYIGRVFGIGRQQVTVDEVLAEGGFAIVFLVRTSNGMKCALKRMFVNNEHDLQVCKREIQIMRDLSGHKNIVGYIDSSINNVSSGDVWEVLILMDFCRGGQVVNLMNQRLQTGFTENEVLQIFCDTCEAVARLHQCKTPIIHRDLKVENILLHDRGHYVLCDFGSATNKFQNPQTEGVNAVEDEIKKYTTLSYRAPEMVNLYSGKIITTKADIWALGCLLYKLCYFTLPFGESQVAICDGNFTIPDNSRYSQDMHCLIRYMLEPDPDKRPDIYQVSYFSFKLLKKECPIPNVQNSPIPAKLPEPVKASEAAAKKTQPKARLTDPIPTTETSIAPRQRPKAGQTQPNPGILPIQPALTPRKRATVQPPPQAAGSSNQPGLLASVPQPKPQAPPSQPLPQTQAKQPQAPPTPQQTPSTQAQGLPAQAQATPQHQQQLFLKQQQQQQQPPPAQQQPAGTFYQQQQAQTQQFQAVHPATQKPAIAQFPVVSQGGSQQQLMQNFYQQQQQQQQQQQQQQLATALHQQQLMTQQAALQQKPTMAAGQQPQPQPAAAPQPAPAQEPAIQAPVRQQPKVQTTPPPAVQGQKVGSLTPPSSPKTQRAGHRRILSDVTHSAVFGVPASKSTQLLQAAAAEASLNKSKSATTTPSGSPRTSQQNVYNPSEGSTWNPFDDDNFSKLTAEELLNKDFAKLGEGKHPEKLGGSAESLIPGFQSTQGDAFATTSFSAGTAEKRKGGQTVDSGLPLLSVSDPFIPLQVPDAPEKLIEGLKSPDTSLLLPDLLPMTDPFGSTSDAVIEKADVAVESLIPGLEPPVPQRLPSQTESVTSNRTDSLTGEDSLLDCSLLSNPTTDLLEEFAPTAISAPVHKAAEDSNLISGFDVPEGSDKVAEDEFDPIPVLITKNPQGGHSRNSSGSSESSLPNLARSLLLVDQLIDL

SRPK2 (human) = SRPK2 (human) (UniProt P78362)
FLT4 (human) = FLT4 (human) (UniProt P35916)
Sequence of FLT4 (human) (P35916 whole entry, looked up): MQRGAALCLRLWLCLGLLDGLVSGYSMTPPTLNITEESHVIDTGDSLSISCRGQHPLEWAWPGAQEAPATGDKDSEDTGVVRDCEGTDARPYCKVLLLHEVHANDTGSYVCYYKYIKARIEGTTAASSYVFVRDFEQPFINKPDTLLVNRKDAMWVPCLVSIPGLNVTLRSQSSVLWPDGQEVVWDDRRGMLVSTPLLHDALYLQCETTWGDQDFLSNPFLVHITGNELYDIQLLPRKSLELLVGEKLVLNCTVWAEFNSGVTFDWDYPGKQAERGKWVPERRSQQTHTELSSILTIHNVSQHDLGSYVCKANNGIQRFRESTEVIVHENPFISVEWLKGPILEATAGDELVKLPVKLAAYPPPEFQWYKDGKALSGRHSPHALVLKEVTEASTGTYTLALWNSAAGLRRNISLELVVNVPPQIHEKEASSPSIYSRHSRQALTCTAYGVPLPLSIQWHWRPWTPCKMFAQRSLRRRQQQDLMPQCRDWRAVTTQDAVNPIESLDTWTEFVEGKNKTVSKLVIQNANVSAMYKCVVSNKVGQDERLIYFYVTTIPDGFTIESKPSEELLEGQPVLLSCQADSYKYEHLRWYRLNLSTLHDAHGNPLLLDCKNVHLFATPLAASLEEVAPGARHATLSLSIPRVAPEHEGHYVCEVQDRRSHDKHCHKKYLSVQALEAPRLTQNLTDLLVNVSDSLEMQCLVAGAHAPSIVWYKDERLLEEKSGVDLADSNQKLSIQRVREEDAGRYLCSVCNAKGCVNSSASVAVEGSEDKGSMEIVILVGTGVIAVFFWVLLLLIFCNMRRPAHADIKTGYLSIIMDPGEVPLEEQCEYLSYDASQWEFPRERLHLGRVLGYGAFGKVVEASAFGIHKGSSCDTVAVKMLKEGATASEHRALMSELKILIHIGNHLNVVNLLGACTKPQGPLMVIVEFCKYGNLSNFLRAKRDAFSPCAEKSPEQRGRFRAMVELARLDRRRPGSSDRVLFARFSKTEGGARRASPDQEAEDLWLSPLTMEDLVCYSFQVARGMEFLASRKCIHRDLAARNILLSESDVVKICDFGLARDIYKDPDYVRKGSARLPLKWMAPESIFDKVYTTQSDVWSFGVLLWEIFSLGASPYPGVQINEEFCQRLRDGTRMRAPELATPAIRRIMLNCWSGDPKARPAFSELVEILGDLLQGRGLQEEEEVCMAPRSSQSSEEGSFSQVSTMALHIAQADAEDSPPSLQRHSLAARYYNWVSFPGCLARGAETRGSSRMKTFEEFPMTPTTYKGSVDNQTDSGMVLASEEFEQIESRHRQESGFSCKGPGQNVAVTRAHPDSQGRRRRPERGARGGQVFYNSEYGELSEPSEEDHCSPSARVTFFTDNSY

ADCK4 (human) = ADCK4 (human) (UniProt Q96D53)
TEC (human) = TEC (human) (UniProt P42680)
[2] = system: EGFR (human), P00533 [752-759 del]
[3] = target: TYK2 JH2 pseudokinase (human) (UniProt P29597)
BMPR1A (human) = BMPR1A (human) (UniProt P36894)
Sequence of BMPR1A (human) (P36894 whole entry, looked up): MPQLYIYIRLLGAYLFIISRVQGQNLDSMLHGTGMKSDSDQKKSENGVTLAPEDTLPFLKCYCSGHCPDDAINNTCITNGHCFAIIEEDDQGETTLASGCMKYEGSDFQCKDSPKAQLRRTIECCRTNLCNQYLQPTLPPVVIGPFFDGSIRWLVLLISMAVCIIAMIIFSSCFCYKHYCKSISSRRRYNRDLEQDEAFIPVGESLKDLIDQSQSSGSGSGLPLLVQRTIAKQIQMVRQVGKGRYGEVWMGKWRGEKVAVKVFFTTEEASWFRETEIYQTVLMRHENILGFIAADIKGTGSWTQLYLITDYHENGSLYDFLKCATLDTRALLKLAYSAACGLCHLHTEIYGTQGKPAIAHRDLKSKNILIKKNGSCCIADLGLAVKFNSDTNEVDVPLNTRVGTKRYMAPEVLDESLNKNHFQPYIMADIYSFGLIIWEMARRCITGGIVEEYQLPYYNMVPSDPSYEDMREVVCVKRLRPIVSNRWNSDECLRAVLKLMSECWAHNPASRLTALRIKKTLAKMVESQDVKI

[4] = system: EGFR (human), P00533 [747-751 del / S ins]
IRAK1 (human) = IRAK1 (human) (UniProt P51617)
EIF2AK1 (human) = EIF2AK1 (human) (UniProt Q9BQI3)
MAP2K5 (human) = MAP2K5 (human) (UniProt Q13163)
[5] = system: EGFR (human), P00533 [G719C]
STK38L (human) = STK38L (human) (UniProt Q9Y2H1)
STK17B (human) = STK17B (human) (UniProt O94768)
NTRK3 (human) = NTRK3 (human) (UniProt Q16288)
RPS6KA6 KD2 (human) = RPS6KA6 KD2 (human) (UniProt Q9UK32)
PIP5K1A (human) = PIP5K1A (human) (UniProt Q99755)
PTK2 (human) = PTK2 (human) (UniProt Q05397)
Sequence of PTK2 (human) (Q05397 whole entry, looked up): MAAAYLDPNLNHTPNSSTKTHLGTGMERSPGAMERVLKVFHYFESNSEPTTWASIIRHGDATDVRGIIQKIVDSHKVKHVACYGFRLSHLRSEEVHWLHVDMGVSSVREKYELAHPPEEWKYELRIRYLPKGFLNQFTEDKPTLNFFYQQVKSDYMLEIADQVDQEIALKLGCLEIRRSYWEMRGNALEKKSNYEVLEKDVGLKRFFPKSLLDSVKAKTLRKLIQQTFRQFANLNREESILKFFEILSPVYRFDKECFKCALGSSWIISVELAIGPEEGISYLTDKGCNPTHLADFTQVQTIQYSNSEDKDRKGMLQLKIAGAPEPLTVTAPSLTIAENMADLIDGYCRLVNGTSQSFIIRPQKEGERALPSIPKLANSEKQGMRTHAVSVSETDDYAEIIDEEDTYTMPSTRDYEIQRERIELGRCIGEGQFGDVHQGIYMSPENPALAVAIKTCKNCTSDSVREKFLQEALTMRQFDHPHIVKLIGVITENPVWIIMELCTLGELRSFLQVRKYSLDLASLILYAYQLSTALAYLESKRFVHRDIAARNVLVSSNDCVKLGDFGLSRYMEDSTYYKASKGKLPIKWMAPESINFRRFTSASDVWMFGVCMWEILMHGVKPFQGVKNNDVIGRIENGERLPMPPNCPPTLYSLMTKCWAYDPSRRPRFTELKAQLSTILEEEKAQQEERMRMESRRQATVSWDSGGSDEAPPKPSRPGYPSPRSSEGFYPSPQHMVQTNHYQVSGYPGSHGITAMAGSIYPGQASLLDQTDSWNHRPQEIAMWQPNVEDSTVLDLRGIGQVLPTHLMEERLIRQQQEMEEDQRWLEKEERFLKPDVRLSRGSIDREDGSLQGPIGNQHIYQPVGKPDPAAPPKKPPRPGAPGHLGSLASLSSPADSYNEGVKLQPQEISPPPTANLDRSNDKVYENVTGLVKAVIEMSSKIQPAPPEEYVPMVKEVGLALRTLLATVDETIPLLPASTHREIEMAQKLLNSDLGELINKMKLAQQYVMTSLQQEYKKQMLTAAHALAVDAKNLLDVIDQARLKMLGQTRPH

MLTK (human) = MLTK (human) (UniProt Q9NYL2)
MAP3K10 (human) = MAP3K10 (human) (UniProt Q02779)
TSSK1B (human) = TSSK1B (human) (UniProt Q9BXA7)
Sequence of TSSK1B (human) (Q9BXA7 whole entry, looked up): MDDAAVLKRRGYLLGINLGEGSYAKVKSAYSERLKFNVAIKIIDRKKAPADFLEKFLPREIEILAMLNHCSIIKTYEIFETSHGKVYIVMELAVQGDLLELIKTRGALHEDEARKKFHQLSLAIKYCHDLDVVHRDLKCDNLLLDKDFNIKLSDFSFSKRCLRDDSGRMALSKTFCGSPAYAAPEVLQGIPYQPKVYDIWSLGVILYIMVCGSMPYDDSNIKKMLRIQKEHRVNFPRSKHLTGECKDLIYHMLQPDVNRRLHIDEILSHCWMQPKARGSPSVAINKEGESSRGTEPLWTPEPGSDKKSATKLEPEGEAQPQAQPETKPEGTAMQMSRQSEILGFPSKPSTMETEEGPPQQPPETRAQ

FGFR4 (human) = FGFR4 (human) (UniProt P22455)
[6] = system: PIK3CA (human), P42336 [H1047L]

## CN(C)C/C=C/C(=O)Nc1cccc(C(=O)Nc2ccc(Nc3nccc(-c4c(-c5ccccc5)nn5ccccc45)n3)cc2)c1
PAK7 (human)
  kinase still bound, per cent of control: 92%
MAP3K11 (human)
  kinase still bound, per cent of control: 71%
CSNK2A2 (human)
  kinase still bound, per cent of control: 100%
MAP3K12 (human)
  kinase still bound, per cent of control: 84%
YSK4 (human)
  kinase still bound, per cent of control: 62%
EPHA1 (human)
  kinase still bound, per cent of control: 38%
AXL (human)
  kinase still bound, per cent of control: 58%
MARK2 (human)
  kinase still bound, per cent of control: 98%
GSK3B (human)
  kinase still bound, per cent of control: 49%
[1]
  kinase still bound, per cent of control: 11%
GRK7 (human)
  kinase still bound, per cent of control: 86%
ULK2 (human)
  kinase still bound, per cent of control: 100%
CDK11B (human)
  kinase still bound, per cent of control: 43%
STK24 (human)
  kinase still bound, per cent of control: 88%
LIMK2 (human)
  kinase still bound, per cent of control: 100%
HIPK1 (human)
  kinase still bound, per cent of control: 100%
NIM1 (human)
  kinase still bound, per cent of control: 100%
CSNK1G3 (human)
  kinase still bound, per cent of control: 1.2%
AAK1 (human)
  kinase still bound, per cent of control: 100%
SRPK2 (human)
  kinase still bound, per cent of control: 85%
FLT4 (human)
  kinase still bound, per cent of control: 7.8%
ADCK4 (human)
  kinase still bound, per cent of control: 0%
TEC (human)
  kinase still bound, per cent of control: 100%
[2]
  kinase still bound, per cent of control: 7.8%
[3]
  kinase still bound, per cent of control: 100%
BMPR1A (human)
  kinase still bound, per cent of control: 66%
[4]
  kinase still bound, per cent of control: 3.4%
IRAK1 (human)
  kinase still bound, per cent of control: 2%
EIF2AK1 (human)
  kinase still bound, per cent of control: 76%
MAP2K5 (human)
  kinase still bound, per cent of control: 23%
[5]
  kinase still bound, per cent of control: 0.55%
STK38L (human)
  kinase still bound, per cent of control: 100%
STK17B (human)
  kinase still bound, per cent of control: 100%
NTRK3 (human)
  kinase still bound, per cent of control: 84%
RPS6KA6 KD2 (human)
  kinase still bound, per cent of control: 13%
PIP5K1A (human)
  kinase still bound, per cent of control: 67%
PTK2 (human)
  kinase still bound, per cent of control: 95%
MLTK (human)
  kinase still bound, per cent of control: 11%
MAP3K10 (human)
  kinase still bound, per cent of control: 100%
TSSK1B (human)
  kinase still bound, per cent of control: 86%
FGFR4 (human)
  kinase still bound, per cent of control: 100%
[6]
  kinase still bound, per cent of control: 77%
